Data: US6750234B2, “Methods for increasing leptin levels using nicotinic acid compounds” (University of Kentucky Research Foundation, priority 2001, dated 2004)
Read-outs that look alike come from different tables or passages of the source.

Key:
[1] = tested on: leptin; details: transgenic mice; cited from earlier work
[2] = tested on: full thickness wounds; details: mice, about 6 mm full thickness wounds, topical 20% lotion, 100 μl twice every day for 14 days, vs lotion without ester
Protocol: Mice were inflicted with full thickness wounds of about 6 mm in diameter, under anesthesia (sodium phenobarbital). They then received topical application of a 20% nicotinate ester lotion, every day, for 14 days. The dosing was 100 μl for each application, with two applications every day. As a control, the lotion without the ester was used. Wound diameter was measured every day.

[3] = tested on: leptin; details: female apoB/CETP mice
Protocol: Leptin levels in plasma were determined using a commercially available murine leptin radioimmunoassay. The RIA was carried out on fasting (16 h) blood samples obtained from the retroorbital plexus. The blood samples were collected and centrifuged at 2000×g for 15 minutes to secure plasma.

[4] = tested on: leptin; details: male BALB/C mice, 4 ml/kg/mouse, vs vehicle
Protocol: The experiments described in example 2 were continued, in the experiment described in this example. Specifically, male BALB/C mice were shaved, from the scapulae to tail bases. The subject animals then received topical application of the lauryl nicotinate ester lotion, described in example 2, supra, or myristyl nicotinate ester lotion, in varying concentrations. Controls received vehicle only. The lotion was applied at a dose of 4 ml/kg/mouse.
Serum leptin levels were measured, as described, supra.

[5] = tested on: Human adipocytes; details: 0.1 mM niacin, 24 hours, vs cultures without niacin
Protocol: Human adipocytes were obtained in accordance with standard methods. In brief, preadipocytes were collected from subcutaneous adipose tissue, following collagenase treatment. The preadipocytes were plated, and allowed to differentiate for 3 weeks, to form adipocytes.
The adipocytes were then incubated, in 0.6 ml of DMEM/F-10 medium, to which 2% bovine serum albumin was added.
After 24 hours, the culture medium was analyzed for leptin, using a commercially available ELISA kit.

Cc1cnc(C(=O)O)c[n+]1[O-] [Acipimox]
plasma leptin levels [1]: increase plasma leptin levels

CCCCCCCCCCCCOC(=O)c1cccnc1 [lauryl nicotinate ester]
reduction of wound thickness [2]: 43%
amount of circulating leptin (plasma) ([3]; topical, 200 mg of 10% (wt/wt) lotion daily for 13 weeks, compared with oral niacin): surpassed it in terms of the amount of circulating leptin
increase in serum leptin levels ([4]; topical 10% lotion): 45%

CCCCCCCCCCCCCCOC(=O)c1cccnc1 [myristyl nicotinate ester]
increase in serum leptin levels ([4]; topical 2% formulation): 57%
increase in serum leptin levels ([4]; topical 5% formulation): 77%

O=C(O)c1cccnc1 [niacin, reference compound]
amount of circulating leptin (plasma) ([3]; oral, sodium salt 0.75% in drinking water, approx. 1400 mg/kg, fasting (16 h) blood): did increase the amount of circulating leptin
increase in leptin production [5]: 62%
